Earlier results on 1 molecule are cited in US20130071904A1, “ACETATE-RESISTANT YEAST STRAIN FOR THE PRODUCTION OF A FERMENTATION PRODUCT” (priority 2010, published 2013).

In this series the test system is Saccharomyces cells. As to conditions: Pons et al. 1984.

In the case of `CC(=O)O` [Acetate], the “effect on growth of Saccharomyces cells” value was “inhibits the growth”.
